The source made the active and inactive calls. The rule behind the calls is not given here.
Legend:
DOHH-2 [1] = test: Induction of apoptosis in human DOHH-2 cells assessed as necrotic cells at 2 uM incubated for 48 hrs in presence of ibrutinib by annexin V-FITC and PI staining based flow cytometry analysis (Rvb =0.29 %); assay type: functional
SU-DHL-6 [2] = test: Induction of apoptosis in human SU-DHL-6 cells assessed as necrotic cells at 1.5 uM incubated for 48 hrs in presence of ibrutinib by annexin V-FITC and PI staining based flow cytometry analysis (reference value: 0.32%); assay type: functional
DOHH-2 [3] = test: Induction of apoptosis in human DOHH-2 cells assessed as viable cells at 2 uM incubated for 48 hrs in presence of ibrutinib by annexin V-FITC and PI staining based flow cytometry analysis (reference value: 95.4 %); assay type: functional; conditions: read-out: Activity
Homo sapiens = species on record: Homo sapiens; test: Selectivity ratio of IC50 for N-terminal His6-tagged recombinant full length human PI3Kalpha expressed in baculovirus infected Sf21 insect cells to IC50 for N-terminal His6-tagged recombinant full length human PI3Kgamma expressed in baculovirus infected Sf21 insect cells
[4] = Cmax in Sprague-Dawley rat at 2 mg/kg, iv measured upto 24 hrs by LC-MS/MS analysis; assay type: ADME, organism-based; parameters: time < 24 hrs, dose 2 mg/kg, route iv; conditions: in vivo
DOHH-2 [5] = test: Induction of apoptosis in human DOHH-2 cells assessed as early apoptotic cells at 2 uM incubated for 48 hrs in presence of ibrutinib by annexin V-FITC and PI staining based flow cytometry analysis (reference value: 2.09 %); assay type: functional
DOHH-2 [6] = test: Induction of apoptosis in human DOHH-2 cells assessed as late apoptotic cells at 2 uM incubated for 48 hrs by annexin V-FITC and PI staining based flow cytometry analysis (reference value: 2.20 %); assay type: functional
SU-DHL-6 [7] = test: Induction of cell cycle arrest in human SU-DHL-6 cells assessed as accumulation of cells at G2/M phase at 0.5 uM incubated for 24 hrs by PI staining based FACScan flow cytometry analysis (reference value: 20.21 %); assay type: functional
SU-DHL-6 [8] = test: Antitumor activity against human SU-DHL-6 cells xenografted in NOD/SCID mouse assessed as tumor growth inhibition at 10 mg/kg, po measured every 2 days in presence of ibrutinib; assay type: functional; conditions: SU-DHL-6, 48 h, time 2 day, read-out: TGI
DOHH-2 [9] = test: Induction of apoptosis in human DOHH-2 cells assessed as necrotic cells at 2 uM incubated for 48 hrs by annexin V-FITC and PI staining based flow cytometry analysis (Rvb =0.29 %); assay type: functional
SU-DHL-6 [10] = test: Induction of cell cycle arrest in human SU-DHL-6 cells assessed as accumulation of cells at G0/G1 phase at 0.5 uM incubated for 24 hrs by PI staining based FACScan flow cytometry analysis (reference value: 55.61 %); assay type: functional
SU-DHL-6 [11] = test: Induction of apoptosis in human SU-DHL-6 cells assessed as necrotic cells at 1.5 uM incubated for 48 hrs by annexin V-FITC and PI staining based flow cytometry analysis (reference value: 0.32%); assay type: functional
SU-DHL-6 [12] = test: Induction of cell cycle arrest in human SU-DHL-6 cells assessed as accumulation of cells at G2/M phase at 0.5 uM incubated for 24 hrs in presence of ibrutinib by PI staining based FACScan flow cytometry analysis (reference value: 20.21 %); assay type: functional
SU-DHL-6 [13] = test: Antitumor activity against human SU-DHL-6 cells xenografted in NOD/SCID mouse assessed as reduction in tumor weight at 10 mg/kg, po measured every 2 days in presence of ibrutinib; assay type: functional, organism-based; conditions: time 2.0 day
[14] = Binding affinity to N-terminal His6-tagged recombinant full length human PI3K expressed in baculovirus infected Sf21 insect cells at 10 uM in presence of [gamma-33ATP] by scintillation counting based radiometry assay relative to control
SU-DHL-6 [15] = test: Antiproliferative activity against human SU-DHL-6 cells assessed as cell growth inhibition measured after 72 hrs by MTT assay; assay type: functional, cell-based; conditions: SU-DHL-6, 72 h
SU-DHL-6 [16] = test: Induction of apoptosis in human SU-DHL-6 cells assessed as viable cells at 1.5 uM incubated for 48 hrs in presence of ibrutinib by annexin V-FITC and PI staining based flow cytometry analysis (reference value: 87.0 %); assay type: functional; conditions: read-out: Activity
[17] = target: Phosphatidylinositol 4,5-bisphosphate 3-kinase catalytic subunit beta isoform (Homo sapiens, UniProt P42338); test: Inhibition of N-terminal His6-tagged recombinant full length human PI3Kbeta expressed in baculovirus infected Sf21 insect cells incubated for 30 mins by HTRF assay
Phosphatidylinositol 4,5-bisphosphate 3-kinase catalytic subunit beta isoform, sequence (P42338 whole entry, canonical isoform): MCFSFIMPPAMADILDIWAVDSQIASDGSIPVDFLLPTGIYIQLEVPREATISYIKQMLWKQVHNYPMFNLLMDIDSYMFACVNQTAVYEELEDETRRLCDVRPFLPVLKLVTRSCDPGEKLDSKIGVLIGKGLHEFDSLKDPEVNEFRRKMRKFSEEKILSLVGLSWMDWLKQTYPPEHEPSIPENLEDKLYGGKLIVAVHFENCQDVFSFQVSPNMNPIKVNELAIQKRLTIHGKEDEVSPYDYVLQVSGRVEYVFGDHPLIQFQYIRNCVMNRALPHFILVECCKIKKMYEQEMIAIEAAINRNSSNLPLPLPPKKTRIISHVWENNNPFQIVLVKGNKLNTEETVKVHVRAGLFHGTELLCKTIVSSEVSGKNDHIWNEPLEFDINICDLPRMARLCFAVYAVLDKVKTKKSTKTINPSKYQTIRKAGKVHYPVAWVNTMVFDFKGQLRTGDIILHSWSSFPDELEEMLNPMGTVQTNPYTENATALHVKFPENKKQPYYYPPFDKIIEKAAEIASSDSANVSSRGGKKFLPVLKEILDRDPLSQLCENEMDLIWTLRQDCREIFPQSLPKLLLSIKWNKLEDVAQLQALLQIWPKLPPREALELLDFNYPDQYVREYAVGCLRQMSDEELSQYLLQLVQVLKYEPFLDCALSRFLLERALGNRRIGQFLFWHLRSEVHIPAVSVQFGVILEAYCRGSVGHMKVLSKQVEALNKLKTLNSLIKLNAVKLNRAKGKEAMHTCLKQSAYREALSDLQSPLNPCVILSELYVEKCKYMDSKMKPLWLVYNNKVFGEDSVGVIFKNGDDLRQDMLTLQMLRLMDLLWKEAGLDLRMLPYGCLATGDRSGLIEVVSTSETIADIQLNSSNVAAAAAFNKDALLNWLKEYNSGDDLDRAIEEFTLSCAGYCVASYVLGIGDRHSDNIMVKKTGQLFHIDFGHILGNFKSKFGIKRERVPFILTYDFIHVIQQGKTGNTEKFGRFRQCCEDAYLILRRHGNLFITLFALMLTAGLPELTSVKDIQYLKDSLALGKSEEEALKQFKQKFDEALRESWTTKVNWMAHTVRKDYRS

[18] = AUC(0 to t) in Sprague-Dawley rat at 5 mg/kg, iv measured upto 24 hrs by LC-MS/MS analysis; assay type: ADME, organism-based; parameters: time < 24 hrs, dose 5 mg/kg, route iv; conditions: in vivo
SU-DHL-6 [19] = test: Antitumor activity against human SU-DHL-6 cells xenografted in po dosed NOD/SCID mouse assessed as tumor volume suppression measured every 2 days; assay type: functional, organism-based; conditions: time 2.0 day, DDE = dose-dependent effect
DOHH-2 [20] = test: Antiproliferative activity against human DOHH-2 cells assessed as cell growth inhibition measured after 72 hrs by MTT assay; assay type: functional, cell-based; conditions: DOHH-2, 72 h
[21] = Selectivity ratio of IC50 for human 786-O cells over expressing PI3Kbeta to IC50 for human SU-DHL-6 cells; assay type: functional
[22] = Toxicity in human SU-DHL-6 cells xenografted in NOD/SCID mouse at 10 mg/kg, po measured every 2 days in presence of ibrutinib; assay type: organism-based; conditions: in vivo, 48 h, time 2 day
[23] = Oral bioavailability in Sprague-Dawley rat at 10 mg/kg measured upto 24 hrs by LC-MS/MS analysis; assay type: ADME, organism-based; conditions: in vivo

C[C@H]1CC[C@@H](c2nc3cccc(Cl)c3c(=O)n2-c2cccnc2)N1c1nc(N)nc(N)c1C#N
Activity (DOHH-2 [1]): 1.88%
Activity (SU-DHL-6 [2]): 0.25%
viability at 2 µM (DOHH-2 [3]): 23.5%
Ratio IC50 (Homo sapiens): 794
Cmax [4]: 1520 ng/mL
Activity (DOHH-2 [5]): 48.9%
Activity (DOHH-2 [6]): 17.6%
Activity (SU-DHL-6 [7]): 10.01%
inhibition in vivo at 10 mg/kg (SU-DHL-6 [8]): ≤ 81.4%
Activity (DOHH-2 [9]): 1.45%
Activity (SU-DHL-6 [10]): 63.84%
Activity (SU-DHL-6 [11]): 0.18%
Activity (SU-DHL-6 [12]): 4.62%
Activity (SU-DHL-6 [13]): Active
Activity [14]: Active
IC50 (SU-DHL-6 [15]): 60 nM
viability at 1.5 µM (SU-DHL-6 [16]): 47.1%
IC50 [17]: 84000 nM
AUC(0-t) at 24 h [18]: 6810 ng·h/mL
Activity (SU-DHL-6 [19]): Dde
IC50 (DOHH-2 [20]): 200 nM
Selectivity ratio [21]: 142
Activity [22]: Non-Toxic
bioavailability [23]: 57%

— ChEMBL document CHEMBL5120922, “Discovery, Optimization, and Evaluation of Potent and Selective PI3Kδ-γ Dual Inhibitors for the Treatment of B-cell Malignancies” (J Med Chem, 2022)
